# According to publication PMC3635066 (Journal of medicinal chemistry, 2012):
# pIC50: −log10 of the molar value.
# Key:
# [1] = target: T1, recombinant CpIMPDH (Cryptosporidium parvum, UniProt Q8T6T2); test: biochemical; format: biochemical; conditions: for increase in potency: relative to compound 1
# T1 sequence (Q8T6T2 1-400): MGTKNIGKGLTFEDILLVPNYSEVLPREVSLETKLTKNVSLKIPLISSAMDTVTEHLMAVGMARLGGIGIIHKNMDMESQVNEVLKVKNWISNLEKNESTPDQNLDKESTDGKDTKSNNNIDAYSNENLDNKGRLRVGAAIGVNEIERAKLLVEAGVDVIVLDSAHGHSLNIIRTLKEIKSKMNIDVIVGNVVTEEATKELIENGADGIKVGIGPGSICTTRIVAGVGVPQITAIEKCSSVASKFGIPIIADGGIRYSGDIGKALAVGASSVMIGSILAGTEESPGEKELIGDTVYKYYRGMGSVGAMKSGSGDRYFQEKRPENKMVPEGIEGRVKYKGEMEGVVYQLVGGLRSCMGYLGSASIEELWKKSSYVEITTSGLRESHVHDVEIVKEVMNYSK
# [2] = Mouse liver microsomal stability; format: in vitro ADME
CpIMPDH inhibitory activity (in words) [1],Structure (SMILES),other results
complete loss of inhibitory activity,"CC(C)(NC(=O)Nc1ccc2[nH]c(=O)[nH]c2c1)c1ccccc1 [Compound 38, 1-(2-Oxo-2,3-dihydro-1H-benzo[d]imidazol-5-yl)-3-(2-phenylpropan 2 yl)urea]",
complete loss of inhibitory activity,"CC(C)c1cccc(C(C)(C)NC(=O)Nc2ccc3ccccc3c2)c1 [Compound 11, 1-(2-(3-Isopropylphenyl)propan-2-yl)-3-(naphthalen-2-yl)urea]",
complete loss of inhibitory activity,"CC(C)(NC(=O)Nc1ccc(Cl)cc1)c1ccc(-c2ccccc2)cc1 [Compound 36b, 1-(2-([1,1′-Biphenyl]-4-yl)propan-2-yl)-3-(4-chlorophenyl)urea]",
lacking activity,"C=C(C)c1cccc(C(C)(C)NC(=O)Nc2ccc(C(C)(C)C)cc2)c1 [Compound 5g, 1-(4-(tert-Butyl)phenyl)-3-(2-(3-(prop-1-en-2-yl)phenyl)propan-2-yl)urea]",
complete loss of activity,"CC(=O)c1cccc(CNC(=O)Nc2ccc(Cl)cc2)c1 [Compound 23, 1-(3-Acetylbenzyl)-3-(4-chlorophenyl) urea]",

# The remaining lines, values behind:
Structure (SMILES),CpIMPDH inhibitory activity (in words) [1],other results
"CC(C)(NC(=O)Nc1ccc(Cl)c(C(N)=O)c1)c1cccc(-c2ccccc2)c1 [Compound 36a, 5-(3-(2-([1, 1′-biphenyl]-3-yl)propan-2-yl)ureido)-2-chlorobenzamide]",retained potent activity,
"CC(=O)c1cccc(C(C)(C)NC(=O)Nc2ccc(Cl)c(C(N)=O)c2)c1 [Compound 6c, 5-(3-(2-(3-acetylphenyl)propan-2-yl)ureido)-2-chlorobenzamide]",,mouse liver microsomal stability (in words) [2]: very resistant to oxidative degradation in microsomes
"C=C(C)c1cccc(C(C)(C)NC(=O)Nc2cccc(Cl)c2)c1 [Compound 5d, 1-(3-Chlorophenyl)-3-(2-(3-(prop-1-en-2-yl)phenyl)propan-2-yl)urea]",,loss of activity ([1]; relative to 5b): 3 fold
"C=C(C)c1cccc(C(C)(C)NC(=O)Nc2ccccc2Cl)c1 [Compound 5e, 1-(2-Chlorophenyl)-3-(2-(3-(prop-1-en-2-yl)phenyl)propan-2-yl)urea]",completely inactive,
"CO/N=C(\C)c1cccc(C(C)(C)NC(=O)Nc2ccc(Cl)c(C(F)(F)F)c2)c1 [Compound 8a, (E)-1-(4-Chloro-3-(trifluoromethyl)phenyl)-3-(2-(3-(1-(methoxyimino)ethyl)phenyl)propan-2-yl)urea]",,mouse liver microsomal stability (in words) [2]: less stable
"C=C(C)c1cccc(C(C)(C)NC(=O)Nc2ccc(Cl)cc2)c1 [Compound 5b, 1-(4-chlorophenyl)-3-(2-(3-(prop-1-en-2-yl)phenyl)propan-2-yl)urea]",,increase in potency [1]: 16 fold
"CC(=O)c1cccc(C(C)(C)OC(=O)Nc2ccc(Cl)cc2)c1 [Compound 28, 2-(3-Acetylphenyl) propan-2-yl (4-chlorophenyl)carbamate]",,reduction in activity ([1]; relative to 6a): 2 fold
"CC(O)c1cccc(C(C)(C)NC(=O)Nc2ccc(Cl)cc2)c1 (stereo not shown) [Compound 10, 1-(4-chlorophenyl)-3-(2-(3-(1-hydroxyethyl)phenyl)propan-2-yl)urea]",moderate activity,
"C/C(=N\OCCN)c1cccc(C(C)(C)NC(=O)Nc2ccc(Cl)c([N+](=O)[O-])c2)c1 [Compound 9, (E)-1-(2-(3-(1-((2-aminoethoxy)imino)ethyl)phenyl)propan-2-yl)-3 (4-chloro-3-nitrophenyl)urea]",,mouse liver microsomal stability (in words) [2]: excellent mouse liver microsomal stability
"C=C(C)c1cccc(C(C)(C)NC(=O)Nc2ccc(Br)cc2)c1 [Compound 5c, 1-(4-Bromophenyl)-3-(2-(3-(prop-1-en-2-yl)phenyl)propan-2-yl)urea]",,increase in potency [1]: 32 fold
"C/C(=N\O)c1cccc(C(C)(C)NC(=O)Nc2ccc(Cl)c(C(N)=O)c2)c1 [Compound 7c, (E) 2 chloro 5-(3-(2-(3-(1-(hydroxyimino)ethyl)phenyl)propan-2-yl)ureido)benzamide]",,pIC50 [1]: ≥ 9.00
